Results as given in PubChem BioAssay (NCI).
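Protocol summary: plate cells (96-well), add compound at 5 concentrations, incubate 48 h, interpolate endpoints linearly. The concentration for 50% growth inhibition is given as GI50. TGI: concentration producing complete growth inhibition.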

Key:
Assay in all cases: DTP human tumour cell line panel, 48 h
786-0 renal = tested on: 786-0 renal
A498 renal = tested on: A498 renal
A549 NSCLC = tested on: A549 NSCLC
ACHN renal = tested on: ACHN renal
BT-549 breast = tested on: BT-549 breast
CAKI-1 renal = tested on: CAKI-1 renal
CCRF-CEM leukemia = tested on: CCRF-CEM leukemia
COLO 205 colon = tested on: COLO 205 colon
DU-145 prostate = tested on: DU-145 prostate
EKVX NSCLC = tested on: EKVX NSCLC
HCC-2998 colon = tested on: HCC-2998 colon
HCT-116 colon = tested on: HCT-116 colon
HCT-15 colon = tested on: HCT-15 colon
HL-60(TB) leukemia = tested on: HL-60(TB) leukemia
HOP-62 NSCLC = tested on: HOP-62 NSCLC
HOP-92 NSCLC = tested on: HOP-92 NSCLC
HS 578T breast = tested on: HS 578T breast
HT29 colon = tested on: HT29 colon
IGROV1 ovarian = tested on: IGROV1 ovarian
K-562 leukemia = tested on: K-562 leukemia
KM12 colon = tested on: KM12 colon
LOX IMVI melanoma = tested on: LOX IMVI melanoma
M14 melanoma = tested on: M14 melanoma
MALME-3M melanoma = tested on: MALME-3M melanoma
MCF7 breast = tested on: MCF7 breast
MDA-MB-231 breast = tested on: MDA-MB-231 breast
MDA-MB-435 = tested on: MDA-MB-435
MDA-MB-468 breast = tested on: MDA-MB-468 breast
MOLT-4 leukemia = tested on: MOLT-4 leukemia
NCI-H226 lung = tested on: NCI-H226 lung
NCI-H23 lung = tested on: NCI-H23 lung
NCI-H522 lung = tested on: NCI-H522 lung
NCI/ADR-RES ovarian = tested on: NCI/ADR-RES ovarian
OVCAR-3 ovarian = tested on: OVCAR-3 ovarian
OVCAR-4 ovarian = tested on: OVCAR-4 ovarian
OVCAR-5 ovarian = tested on: OVCAR-5 ovarian
OVCAR-8 ovarian = tested on: OVCAR-8 ovarian
PC-3 prostate = tested on: PC-3 prostate
RXF 393 renal = tested on: RXF 393 renal
SF-268 CNS = tested on: SF-268 CNS
SF-295 CNS = tested on: SF-295 CNS
SF-539 CNS = tested on: SF-539 CNS
SK-MEL-2 melanoma = tested on: SK-MEL-2 melanoma
SK-MEL-28 melanoma = tested on: SK-MEL-28 melanoma
SK-MEL-5 melanoma = tested on: SK-MEL-5 melanoma
SK-OV-3 ovarian = tested on: SK-OV-3 ovarian
SN12C renal = tested on: SN12C renal
SNB-19 CNS = tested on: SNB-19 CNS
SNB-75 CNS = tested on: SNB-75 CNS
SW-620 colon = tested on: SW-620 colon
T-47D breast = tested on: T-47D breast
TK-10 renal = tested on: TK-10 renal
U251 CNS = tested on: U251 CNS
UACC-257 melanoma = tested on: UACC-257 melanoma
UACC-62 melanoma = tested on: UACC-62 melanoma
UO-31 renal = tested on: UO-31 renal

For `O=C(NN1C(=O)/C(=C/C=C/c2ccc([N+](=O)[O-])o2)SC1=S)c1ccncc1`, the GI50 (786-0 renal) was 960 nM, the TGI (786-0 renal) was 2390 nM and the GI50 (A498 renal) was 17100 nM. The TGI (A498 renal) was 31000 nM, the GI50 (A549 NSCLC) was 2860 nM and the TGI (A549 NSCLC) was 10800 nM. The GI50 (ACHN renal) was 1460 nM, the TGI (ACHN renal) was 2770 nM and the GI50 (BT-549 breast) was 495 nM. It also gave a TGI (BT-549 breast) of 1660 nM, a GI50 (CAKI-1 renal) of 1470 nM and a TGI (CAKI-1 renal) of 2820 nM. For the same compound, the GI50 (CCRF-CEM leukemia) was 346 nM, the TGI (CCRF-CEM leukemia) was 3570 nM and the GI50 (COLO 205 colon) was 1520 nM. The TGI (COLO 205 colon) was 2960 nM, the GI50 (DU-145 prostate) was 1960 nM and the TGI (DU-145 prostate) was 4800 nM. It also gave a GI50 (EKVX NSCLC) of 1480 nM, a TGI (EKVX NSCLC) of 2890 nM and a GI50 (HCC-2998 colon) of 1770 nM. It also gave a TGI (HCC-2998 colon) of 3190 nM, a GI50 (HCT-116 colon) of 239 nM and a TGI (HCT-116 colon) of 565 nM. It also gave a GI50 (HCT-15 colon) of 184 nM, a TGI (HCT-15 colon) of 404 nM and a GI50 (HL-60(TB) leukemia) of 1920 nM. The TGI (HL-60(TB) leukemia) was 4830 nM, the GI50 (HOP-62 NSCLC) was 1580 nM and the TGI (HOP-62 NSCLC) was 3140 nM. The GI50 (HOP-92 NSCLC) was 1650 nM, the TGI (HOP-92 NSCLC) was 3350 nM and the GI50 (HS 578T breast) was 1740 nM. It also gave a TGI (HS 578T breast) of 8200 nM, a GI50 (HT29 colon) of 1650 nM and a TGI (HT29 colon) of 3540 nM. For the same compound, the GI50 (IGROV1 ovarian) was 1390 nM, the TGI (IGROV1 ovarian) was 2700 nM and the GI50 (K-562 leukemia) was 294 nM. For the same compound, the TGI (K-562 leukemia) was over 100000 nM, the GI50 (KM12 colon) was 1630 nM and the TGI (KM12 colon) was 4010 nM. The GI50 (LOX IMVI melanoma) was 203 nM, the TGI (LOX IMVI melanoma) was 440 nM and the GI50 (M14 melanoma) was 547 nM. It also gave a TGI (M14 melanoma) of 1930 nM, a GI50 (MALME-3M melanoma) of 240 nM and a TGI (MALME-3M melanoma) of 541 nM. The GI50 (MCF7 breast) was 451 nM, the TGI (MCF7 breast) was 2070 nM and the GI50 (MDA-MB-231 breast) was 655 nM. The TGI (MDA-MB-231 breast) was 1940 nM, the GI50 (MDA-MB-435) was 634 nM and the TGI (MDA-MB-435) was 2220 nM. It also gave a GI50 (MDA-MB-468 breast) of 1200 nM, a TGI (MDA-MB-468 breast) of 2640 nM and a GI50 (MOLT-4 leukemia) of 403 nM. For the same compound, the TGI (MOLT-4 leukemia) was 2210 nM, the GI50 (NCI-H226 lung) was 1190 nM and the TGI (NCI-H226 lung) was 4020 nM. The GI50 (NCI-H23 lung) was 1230 nM, the TGI (NCI-H23 lung) was 2670 nM and the GI50 (NCI-H522 lung) was 189 nM. The TGI (NCI-H522 lung) was 414 nM, the GI50 (NCI/ADR-RES ovarian) was 1420 nM and the TGI (NCI/ADR-RES ovarian) was 7080 nM. It also gave a GI50 (OVCAR-3 ovarian) of 1280 nM, a TGI (OVCAR-3 ovarian) of 3010 nM and a GI50 (OVCAR-4 ovarian) of 1620 nM. It also gave a TGI (OVCAR-4 ovarian) of 3270 nM, a GI50 (OVCAR-5 ovarian) of 1900 nM and a TGI (OVCAR-5 ovarian) of 3380 nM. The GI50 (OVCAR-8 ovarian) was 354 nM, the TGI (OVCAR-8 ovarian) was 3220 nM and the GI50 (PC-3 prostate) was 1930 nM. It also gave a TGI (PC-3 prostate) of 4960 nM, a GI50 (RXF 393 renal) of 1260 nM and a TGI (RXF 393 renal) of 2650 nM. For the same compound, the GI50 (SF-268 CNS) was 1690 nM, the TGI (SF-268 CNS) was 3950 nM and the GI50 (SF-295 CNS) was 1760 nM. It also gave a TGI (SF-295 CNS) of 3270 nM, a GI50 (SF-539 CNS) of 402 nM and a TGI (SF-539 CNS) of 1450 nM. It also gave a GI50 (SK-MEL-2 melanoma) of 584 nM, a TGI (SK-MEL-2 melanoma) of 2020 nM and a GI50 (SK-MEL-28 melanoma) of 1540 nM. For the same compound, the TGI (SK-MEL-28 melanoma) was 2980 nM, the GI50 (SK-MEL-5 melanoma) was 1050 nM and the TGI (SK-MEL-5 melanoma) was 2240 nM. For the same compound, the GI50 (SK-OV-3 ovarian) was 3030 nM, the TGI (SK-OV-3 ovarian) was 9270 nM and the GI50 (SN12C renal) was 369 nM. It also gave a TGI (SN12C renal) of 1620 nM, a GI50 (SNB-19 CNS) of 1800 nM and a TGI (SNB-19 CNS) of 3930 nM. The GI50 (SNB-75 CNS) was 1330 nM, the TGI (SNB-75 CNS) was 7000 nM and the GI50 (SW-620 colon) was 274 nM. The TGI (SW-620 colon) was 739 nM, the GI50 (T-47D breast) was 1730 nM and the TGI (T-47D breast) was 4160 nM. The GI50 (TK-10 renal) was 1630 nM, the TGI (TK-10 renal) was 3030 nM and the GI50 (U251 CNS) was 1030 nM. For the same compound, the TGI (U251 CNS) was 2660 nM, the GI50 (UACC-257 melanoma) was 1530 nM and the TGI (UACC-257 melanoma) was 3310 nM. For the same compound, the GI50 (UACC-62 melanoma) was 377 nM, the TGI (UACC-62 melanoma) was 1450 nM and the GI50 (UO-31 renal) was 1160 nM. The TGI (UO-31 renal) was 2390 nM.
